{
  "source": "patent US20240199755A1",
  "about": "“ANTAGONISTS AND AGONISTS OF THE TRANSFERRIN RECEPTOR-2 FOR USE IN THE TREATMENT OF DISEASES OF THE BONE” (Kymab Limited, priority 2018, published 2024)",
  "key": {"Tfr2-ECD": {"molecular_target": "T1, Tfr2-ECD (Mus musculus, UniProt Q9JKX3)", "T1 construct": "full-length extracellular domain (ECD, aa 103-798) of murine Tfr2; His (N); MBP (N); c3 (protease site between MBP and ECD) (N); made in house; host or cells: Sf9 insect cells (baculovirus, pOCC211-Tfr2-ECD)", "T1 sequence (Q9JKX3 103-798)": "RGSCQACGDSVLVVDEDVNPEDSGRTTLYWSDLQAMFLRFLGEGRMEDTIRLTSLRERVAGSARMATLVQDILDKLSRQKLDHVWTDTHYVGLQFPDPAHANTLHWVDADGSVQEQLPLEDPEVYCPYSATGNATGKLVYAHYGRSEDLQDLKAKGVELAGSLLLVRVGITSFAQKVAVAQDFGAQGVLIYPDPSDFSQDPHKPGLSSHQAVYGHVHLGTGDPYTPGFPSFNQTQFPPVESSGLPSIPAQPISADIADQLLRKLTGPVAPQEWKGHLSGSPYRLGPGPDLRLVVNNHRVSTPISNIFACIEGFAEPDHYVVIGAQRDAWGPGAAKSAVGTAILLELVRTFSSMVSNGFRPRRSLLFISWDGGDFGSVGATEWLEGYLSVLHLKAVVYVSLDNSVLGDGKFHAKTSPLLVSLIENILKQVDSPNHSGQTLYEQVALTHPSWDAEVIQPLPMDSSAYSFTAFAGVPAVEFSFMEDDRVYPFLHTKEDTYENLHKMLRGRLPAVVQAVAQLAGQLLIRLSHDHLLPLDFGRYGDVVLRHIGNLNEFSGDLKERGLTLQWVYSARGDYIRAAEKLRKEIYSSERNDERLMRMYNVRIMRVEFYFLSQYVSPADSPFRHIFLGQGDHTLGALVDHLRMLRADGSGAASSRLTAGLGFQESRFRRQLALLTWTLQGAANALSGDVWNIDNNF", "test": "SPR binding of holo-Tf and BMP receptors to Tfr2-ECD immobilized on the sensor chip", "set-up": "species or system murine", "details": "increasing holo-Tf concentrations without intermediate regeneration", "description": "For this purpose, Tfr2-ECD is immobilized on a Series S Sensor Chip C1 (GE Healthcare), by means of coupling the amino groups at 25° C. The carboxyl groups on the chip surface are activated for 7 minutes using a mixture of 196 mM 1-ethyl-3-(3-dimethylaminopropyl) carbodiimide-hydrochloride and 50 mM n-hydroxysuccinimide at a flow rate of 10 μl/min. Subsequently, 5 μg/ml Tfr2-ECD, diluted with sodium acetate buffer (pH 4.5), is injected at a flow rate of 5 μl/min up to a relative occupancy of 200 RU. Non-reacted groups are inactivated by injecting 1 M thanolamine-HCl (pH 8.5) for 7 minutes at a flow rate of 10 μl/min. In order to prepare a reference surface, the same procedure is carried out but without Tfr2-ECD being injected.\nThe binding assays are carried out at 37° C. at a flow rate of 30 μl/min. Each analyte is diluted by a running buffer (HBS-P, pH 7.4 together with 50 nM FeCl3). […] The values of the binding level are read out, relative to the baseline, 10 s before the end of the injection and are corrected with respect to the molar mass. […] The binding parameters are determined using the Biacore™ T100 evaluation software 2.03. […]\nFor binding analysis, an injection of analyte for 240 s or 300 s over a Tfr2-ECD surface was followed by 1000 s dissociation. The values of the binding levels were recorded from referenced signals 10 s before the end of injection relative to baseline response. […]"}, "[1]": {"molecular_target": "T2, BMP-2 binding to Tfr2-ECD (Homo sapiens, UniProt P12643)", "T2 construct": "full-length extracellular domain (ECD, aa 103-798) of murine Tfr2; His (N); MBP (N); c3 (protease site between MBP and ECD) (N); host or cells: Sf9 insect cells (Tfr2-ECD)", "T2 sequence (P12643 283-396)": "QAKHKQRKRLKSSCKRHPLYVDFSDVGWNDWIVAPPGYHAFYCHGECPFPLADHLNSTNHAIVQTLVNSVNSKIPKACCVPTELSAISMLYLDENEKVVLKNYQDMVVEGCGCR", "test": "SPR competition / sequential injection experiments on Tfr2-ECD surface", "details": "sequential injection of BMP-2 and holo-Tf", "description": "The binding analysis was performed at 37° C. at a flow rate of 30 μl/min. […] In some experiments, 500 mM NaCl were used to reduce potential non-specific binding. […] Concentration-dependent binding of holo-Tf was performed without intermediate regeneration."}, "[2]": {"system": "Sost mRNA expression in osteoblasts", "test": "Sost mRNA expression (qPCR) in ex vivo differentiated osteoblasts after anisomycin", "format": "cell-based, mice", "details": "100 nM anisomycin, 24 h", "description": "Primary murine osteoblasts were differentiated from the bone marrow using standard osteogenic medium in DMEM with 10% FCS, 1% penicillin/streptomycin (Life Technologies, Germany). RNA was isolated at various time points and day 7 osteoblasts were used for immunofluorescence analysis of Tfr2 and for the deep sequencing analysis.\n(§1) Signaling studies: day 7 differentiated cells were treated with 50 ng/ml BMP-2, BMP-4 or BMP-6 for 0, 20, and 40 min and lysed in protein lysis buffer (at least two independent experiments with 3 n each). Anisomycin was used to activate MAPK signaling on day 7 differentiated osteoblasts. Cells were treated with 100 nM anisomycin for 20 min for subsequent protein analysis. For RNA isolation and detection of gene expression, cells were treated with different doses of anisomycin for 24 h (two independent experiments with 3 n each).\nRNA from cell cultures was isolated with the High Pure RNA Isolation Kit (Roche) and RNA from the bones of mice was isolated by crushing flushed bones (femur and tibia) in liquid nitrogen and collecting the bone powder in Trifast (Peqlab, Germany). Other organs were homogenized directly in Trifast using an ultraturrax (IKA, Germany). […] The results were calculated using the ΔΔCT method and are presented in x-fold increase relative to β-actin (or GAPDH where indicated) mRNA levels."}, "[3]": {"system": "ERK (pERK) and p38 (pp38) signaling in osteoblasts", "test": "Western blot of ERK and p38 activation in osteoblasts after anisomycin", "format": "cell-based, mice", "details": "100 nM anisomycin for 20 min", "description": "as §1\nCells were lysed in a buffer containing 20 mM Tris/HCl pH 7.4, 1% SDS, and a protease inhibitor (complete mini, Roche, Germany). To isolate protein from tissues, the protein fraction of the Trifast procedure was used and further processed according to the manufacturer's protocol. The protein concentration was determined using the BCA method (Pierce, Germany). Twenty μg of heatdenatured protein was loaded onto a 10% gel, separated, and transferred onto a 0.2 μm nitrocellulose membrane (Whatman, Germany). […]"}, "[4]": {"system": "bone mass of Tfr2-/- mice", "test": "Anisomycin treatment of WT and Tfr2-/- mice", "format": "in vivo", "details": "5 mg/kg anisomycin for 3 weeks"}},
  "data": [
    {"compound": "Holo-Tf: holo-transferrin, the only known Tfr2 ligand", "values": [
      {"measurement": "Kd value of holo-Tf binding to Tfr2", "setting": "Tfr2-ECD", "value": "micromolar range"},
      {"measurement": "Competition with BMP-2 for binding to Tfr2", "setting": "[1]", "value": "did not compete"}
    ]},
    {"compound": "COc1ccc(C[C@H]2NC[C@H](O)[C@H]2OC(C)=O)cc1", "note": "[anisomycin]", "values": [
      {"measurement": "Increase of Sost mRNA expression", "setting": "[2]; Tfr2 osteoblasts", "value": 19, "unit": "fold"},
      {"measurement": "Increase of Sost mRNA expression", "setting": "[2]; WT osteoblasts", "value": 14, "unit": "fold"},
      {"measurement": "ERK and p38 phosphorylation", "setting": "[3]", "value": "induced ERK and p38 phosphorylation"},
      {"measurement": "Osteoclast numbers (Oc.S/BS)", "setting": "[4]", "value": "not altered"},
      {"measurement": "Bone volume (BV/TV of the fourth lumbar vertebrae)", "setting": "[4]; Tfr2-/- mice", "value": "decreased bone volume back to WT levels"},
      {"measurement": "Osteoblast numbers (N.Ob/B.Pm)", "setting": "[4]; Tfr2-/- mice", "value": "reduced"},
      {"measurement": "Serum levels of sclerostin", "setting": "[4]; Tfr2-/- mice", "value": "increased"}
    ]}
  ]
}
